Test results published in ChEMBL document CHEMBL1129930, “Analogues of methotrexate in rheumatoid arthritis. 2. Effects of 5-deazaaminopterin, 5,10-dideazaaminopterin, and analogues on type II collagen-induced arthritis in mice” (J Med Chem, 1997).

Experiments:
Mus musculus [1] = experiment: Incidence of disease (mouse type II collagen) was scored as the percentage of animals within each experimental group that exhibited joint or limb inflammation on day 44 at intraperitoneal dose of 1.5 mg/kg; assay type: functional
Mus musculus [2] = experiment: Tested for antiinflammatory activity on mouse type II collagen arthritis as Paw swelling of all animals in each group on day 44 at intraperitoneal dose of 1.5 mg/kg; assay type: functional
Mus musculus [3] = experiment: Tested for antiinflammatory activity on mouse type II collagen arthritis as Paw swelling of all animals in each group on day 44 at intraperitoneal dose of 3 mg/kg; assay type: functional
Mus musculus [4] = experiment: Tested for antiinflammatory activity on mouse type II collagen arthritis as Paw swelling of all animals in each group on day 23 at intraperitoneal dose of 1.5 mg/kg; assay type: functional
Mus musculus [5] = experiment: Tested for antiinflammatory activity on mouse type II collagen arthritis as Paw swelling of all animals in each group on day 37 at intraperitoneal dose of 3 mg/kg; assay type: functional
Mus musculus [6] = experiment: Tested for antiinflammatory activity on mouse type II collagen arthritis as Paw swelling of all animals in each group on day 30 at intraperitoneal dose of 6 mg/kg; assay type: functional
Mus musculus [7] = experiment: Incidence of disease (mouse type II collagen) was scored as the percentage of animals within each experimental group that exhibited joint or limb inflammation on day 23 at intraperitoneal dose of 6 mg/kg; assay type: functional
Mus musculus [8] = experiment: Incidence of disease (mouse type II collagen) was scored as the percentage of animals within each experimental group that exhibited joint or limb inflammation on day 30 at intraperitoneal dose of 1.5 mg/kg; assay type: functional
Mus musculus [9] = experiment: Incidence of disease (mouse type II collagen) was scored as the percentage of animals within each experimental group that exhibited joint or limb inflammation on day 30 at intraperitoneal dose of 6 mg/kg; assay type: functional
Mus musculus [10] = experiment: Incidence of disease (mouse type II collagen) was scored as the percentage of animals within each experimental group that exhibited joint or limb inflammation on day 37 at intraperitoneal dose of 6 mg/kg; assay type: functional
Mus musculus [11] = experiment: Incidence of disease (mouse type II collagen) was scored as the percentage of animals within each experimental group that exhibited joint or limb inflammation on day 37 at intraperitoneal dose of 1.5 mg/kg; assay type: functional
Mus musculus [12] = experiment: Tested for antiinflammatory activity on mouse type II collagen arthritis as Paw swelling of all animals in each group on day 30 at intraperitoneal dose of 3 mg/kg; assay type: functional
Mus musculus [13] = experiment: Tested for antiinflammatory activity on mouse type II collagen arthritis as Paw swelling of all animals in each group on day 37 at intraperitoneal dose of 1.5 mg/kg; assay type: functional
Mus musculus [14] = experiment: Incidence of disease (mouse type II collagen) was scored as the percentage of animals within each experimental group that exhibited joint or limb inflammation on day 30 at intraperitoneal dose of 3 mg/kg; assay type: functional
Mus musculus [15] = experiment: Incidence of disease (mouse type II collagen) was scored as the percentage of animals within each experimental group that exhibited joint or limb inflammation on day 23 at intraperitoneal dose of 1.5 mg/kg; assay type: functional
Mus musculus [16] = experiment: Incidence of disease (mouse type II collagen) was scored as the percentage of animals within each experimental group that exhibited joint or limb inflammation on day 23 at intraperitoneal dose of 3 mg/kg; assay type: functional
Mus musculus [17] = experiment: Tested for antiinflammatory activity on mouse type II collagen arthritis as Paw swelling of all animals in each group on day 44 at intraperitoneal dose of 6 mg/kg; assay type: functional
Mus musculus [18] = experiment: Tested for antiinflammatory activity on mouse type II collagen arthritis as Paw swelling of all animals in each group on day 23 at intraperitoneal dose of 3 mg/kg; assay type: functional
Mus musculus [19] = experiment: Tested for antiinflammatory activity on mouse type II collagen arthritis as Paw swelling of all animals in each group on day 23 at intraperitoneal dose of 6 mg/kg; assay type: functional
Mus musculus [20] = experiment: Incidence of disease (mouse type II collagen) was scored as the percentage of animals within each experimental group that exhibited joint or limb inflammation on day 44 at intraperitoneal dose of 6 mg/kg; assay type: functional
Mus musculus [21] = experiment: Incidence of disease (mouse type II collagen) was scored as the percentage of animals within each experimental group that exhibited joint or limb inflammation on day 44 at intraperitoneal dose of 3 mg/kg; assay type: functional
Mus musculus [22] = experiment: Tested for antiinflammatory activity on mouse type II collagen arthritis as Paw swelling of all animals in each group on day 37 at intraperitoneal dose of 6 mg/kg; assay type: functional
Mus musculus [23] = experiment: Tested for antiinflammatory activity on mouse type II collagen arthritis as Paw swelling of all animals in each group on day 30 at intraperitoneal dose of 1.5 mg/kg; assay type: functional
Mus musculus [24] = experiment: Incidence of disease (mouse type II collagen) was scored as the percentage of animals within each experimental group that exhibited joint or limb inflammation on day 37 at intraperitoneal dose of 3 mg/kg; assay type: functional
[25] = Concentration required to inhibit the growth of chang liver cells.; assay type: functional; settings: Homo sapiens
L1210 = experiment: Concentration required to inhibit the growth of L1210 cells.; assay type: functional, cell-based; settings: Mus musculus

## CCCCc1c(CNc2ccc(C(=O)NC(CCC(=O)O)C(=O)O)cc2)cnc2nc(N)nc(N)c12 (stereo unspecified)
Mus musculus [1]
  Animals: 38%
Mus musculus [2]
  Paw swelling: 2.27 mm
Mus musculus [3]
  Paw swelling: 2.27 mm
Mus musculus [4]
  Paw swelling: 2.16 mm
Mus musculus [5]
  Paw swelling: 2.2 mm
Mus musculus [6]
  Paw swelling: 2.15 mm
Mus musculus [7]
  Animals: 0%
Mus musculus [8]
  Animals: 0%
Mus musculus [9]
  Animals: 0%
Mus musculus [10]
  Animals: 50%
Mus musculus [11]
  Animals: 38%
Mus musculus [12]
  Paw swelling: 2.15 mm
Mus musculus [13]
  Paw swelling: 2.23 mm
Mus musculus [14]
  Animals: 0%
Mus musculus [15]
  Animals: 0%
Mus musculus [16]
  Animals: 0%
Mus musculus [17]
  Paw swelling: 2.29 mm
Mus musculus [18]
  Paw swelling: 2.16 mm
Mus musculus [19]
  Paw swelling: 2.12 mm
Mus musculus [20]
  Animals: 50%
Mus musculus [21]
  Animals: 38%
Mus musculus [22]
  Paw swelling: 2.27 mm
Mus musculus [23]
  Paw swelling: 2.17 mm
Mus musculus [24]
  Animals: 12%

## C=CCN(Cc1cnc2nc(N)nc(N)c2c1CC)c1ccc(C(=O)NC(CCC(=O)O)C(=O)O)cc1 (stereo unspecified)
Mus musculus [1]
  Animals: 62%
Mus musculus [2]
  Paw swelling: 2.4 mm
Mus musculus [3]
  Paw swelling: 2.55 mm
Mus musculus [4]
  Paw swelling: 2.14 mm
Mus musculus [5]
  Paw swelling: 2.34 mm
Mus musculus [6]
  Paw swelling: 2.21 mm
Mus musculus [7]
  Animals: 0%
Mus musculus [8]
  Animals: 0%
Mus musculus [9]
  Animals: 25%
Mus musculus [10]
  Animals: 50%
Mus musculus [11]
  Animals: 38%
Mus musculus [12]
  Paw swelling: 2.27 mm
Mus musculus [13]
  Paw swelling: 2.26 mm
Mus musculus [14]
  Animals: 29%
Mus musculus [15]
  Animals: 0%
Mus musculus [16]
  Animals: 0%
Mus musculus [17]
  Paw swelling: 2.45 mm
Mus musculus [18]
  Paw swelling: 2.16 mm
Mus musculus [19]
  Paw swelling: 2.15 mm
Mus musculus [20]
  Animals: 88%
Mus musculus [21]
  Animals: 86%
Mus musculus [22]
  Paw swelling: 2.28 mm
Mus musculus [23]
  Paw swelling: 2.18 mm
Mus musculus [24]
  Animals: 57%

## CCc1c(CN(C)c2ccc(C(=O)NC(CCC(=O)O)C(=O)O)s2)cnc2nc(N)nc(N)c12 (stereo unspecified)
Mus musculus [1]
  Animals: 50%
Mus musculus [2]
  Paw swelling: 2.37 mm
Mus musculus [3]
  Paw swelling: 2.45 mm
Mus musculus [4]
  Paw swelling: 2.24 mm
Mus musculus [5]
  Paw swelling: 2.2 mm
Mus musculus [6]
  Paw swelling: 2.13 mm
Mus musculus [7]
  Animals: 0%
Mus musculus [8]
  Animals: 12%
Mus musculus [9]
  Animals: 0%
Mus musculus [10]
  Animals: 12%
Mus musculus [11]
  Animals: 38%
Mus musculus [12]
  Paw swelling: 2.15 mm
Mus musculus [13]
  Paw swelling: 2.26 mm
Mus musculus [14]
  Animals: 0%
Mus musculus [15]
  Animals: 25%
Mus musculus [16]
  Animals: 0%
Mus musculus [17]
  Paw swelling: 2.32 mm
Mus musculus [18]
  Paw swelling: 2.14 mm
Mus musculus [19]
  Paw swelling: 2.12 mm
Mus musculus [20]
  Animals: 50%
Mus musculus [21]
  Animals: 88%
Mus musculus [22]
  Paw swelling: 2.16 mm
Mus musculus [23]
  Paw swelling: 2.2 mm
Mus musculus [24]
  Animals: 12%

## C#CCN(Cc1cnc2nc(N)nc(N)c2c1C)c1ccc(C(=O)NC(CCC(=O)O)C(=O)O)cc1 (stereo unspecified)
Mus musculus [1]
  Animals: 62%
Mus musculus [2]
  Paw swelling: 2.37 mm
Mus musculus [3]
  Paw swelling: 2.38 mm
Mus musculus [4]
  Paw swelling: 2.16 mm
[25]
  IC50: 0.593 µM
L1210
  IC50: 0.0016 µM
Mus musculus [6]
  Paw swelling: 2.21 mm
Mus musculus [7]
  Animals: 12%
Mus musculus [8]
  Animals: 25%
Mus musculus [9]
  Animals: 25%
Mus musculus [10]
  Animals: 62%
Mus musculus [11]
  Animals: 50%
Mus musculus [12]
  Paw swelling: 2.27 mm
Mus musculus [13]
  Paw swelling: 2.33 mm
Mus musculus [14]
  Animals: 25%
Mus musculus [15]
  Animals: 0%
Mus musculus [16]
  Animals: 0%
Mus musculus [17]
  Paw swelling: 2.46 mm
Mus musculus [18]
  Paw swelling: 2.12 mm
Mus musculus [19]
  Paw swelling: 2.23 mm
Mus musculus [20]
  Animals: 62%
Mus musculus [21]
  Animals: 62%
Mus musculus [22]
  Paw swelling: 2.32 mm
Mus musculus [23]
  Paw swelling: 2.31 mm
Mus musculus [24]
  Animals: 50%

## Cc1c(CNc2ccc(C(=O)NC(CCC(=O)O)C(=O)O)cc2)cnc2nc(N)nc(N)c12 (stereo unspecified)
Mus musculus [1]
  Animals: 75%
Mus musculus [2]
  Paw swelling: 2.55 mm
Mus musculus [3]
  Paw swelling: 2.53 mm
Mus musculus [4]
  Paw swelling: 2.13 mm
Mus musculus [5]
  Paw swelling: 2.42 mm
[25]
  IC50: 0.123 µM
L1210
  IC50: 0.0018 µM
Mus musculus [6]
  Paw swelling: 2.16 mm
Mus musculus [7]
  Animals: 0%
Mus musculus [8]
  Animals: 0%
Mus musculus [9]
  Animals: 0%
Mus musculus [10]
  Animals: 100%
Mus musculus [11]
  Animals: 25%
Mus musculus [12]
  Paw swelling: 2.18 mm
Mus musculus [13]
  Paw swelling: 2.31 mm
Mus musculus [14]
  Animals: 0%
Mus musculus [15]
  Animals: 0%
Mus musculus [16]
  Animals: 12%
Mus musculus [17]
  Paw swelling: 2.59 mm
Mus musculus [18]
  Paw swelling: 2.21 mm
Mus musculus [19]
  Paw swelling: 2.12 mm
Mus musculus [20]
  Animals: 100%
Mus musculus [21]
  Animals: 60%
Mus musculus [22]
  Paw swelling: 2.34 mm
Mus musculus [24]
  Animals: 40%

## Cc1c(CN(C)c2ccc(C(=O)NC(CCC(=O)O)C(=O)O)s2)cnc2nc(N)nc(N)c12 (stereo unspecified)
Mus musculus [1]
  Animals: 50%
Mus musculus [2]
  Paw swelling: 2.33 mm
Mus musculus [3]
  Paw swelling: 2.32 mm
Mus musculus [4]
  Paw swelling: 2.12 mm
Mus musculus [5]
  Paw swelling: 2.14 mm
Mus musculus [6]
  Paw swelling: 2.13 mm
Mus musculus [7]
  Animals: 0%
Mus musculus [8]
  Animals: 0%
Mus musculus [9]
  Animals: 0%
Mus musculus [10]
  Animals: 12%
Mus musculus [11]
  Animals: 12%
Mus musculus [12]
  Paw swelling: 2.16 mm
Mus musculus [13]
  Paw swelling: 2.21 mm
Mus musculus [14]
  Animals: 0%
Mus musculus [15]
  Animals: 0%
Mus musculus [16]
  Animals: 0%
Mus musculus [18]
  Paw swelling: 2.13 mm
Mus musculus [19]
  Paw swelling: 2.11 mm
Mus musculus [20]
  Animals: 38%
Mus musculus [21]
  Animals: 57%
Mus musculus [22]
  Paw swelling: 2.19 mm
Mus musculus [24]
  Animals: 0%

## Cc1c(CN(C)c2ccc(C(=O)NC(CCC(=O)O)C(=O)O)cc2)cnc2nc(N)nc(N)c12 (stereo unspecified)
Mus musculus [1]
  Animals: 62%
Mus musculus [2]
  Paw swelling: 2.44 mm
Mus musculus [3]
  Paw swelling: 2.48 mm
Mus musculus [5]
  Paw swelling: 2.47 mm
[25]
  IC50: 0.078 µM
L1210
  IC50: 0.0013 µM
Mus musculus [8]
  Animals: 12%
Mus musculus [11]
  Animals: 50%
Mus musculus [12]
  Paw swelling: 2.26 mm
Mus musculus [13]
  Paw swelling: 2.42 mm
Mus musculus [14]
  Animals: 50%
Mus musculus [15]
  Animals: 0%
Mus musculus [16]
  Animals: 0%
Mus musculus [18]
  Paw swelling: 2.1 mm
Mus musculus [21]
  Animals: 100%
Mus musculus [23]
  Paw swelling: 2.26 mm
Mus musculus [24]
  Animals: 50%
